Results reported in ChEMBL document CHEMBL2010786, “Design and synthesis of benzenesulfonamide derivatives as potent anti-influenza hemagglutinin inhibitors” (ACS Med Chem Lett, 2011).
Values after ≈ are worked out from the molar mass of the structure shown.

Tests used:
[1] = Oral bioavailability in CD1 mouse at 10 mg/kg; type: ADME, organism-based; settings: in vivo
[2] = Solubility of the compound in phosphate buffer at pH 6.5; type: physicochemical

Row | SMILES | bioavailability [1] | solubility [2]
1 | CC1(C)C[C@H](O)C[C@](C)(CNc2cc(Cl)cc(S(N)(=O)=O)c2)C1 | 55% | 
2 | CC1(C)C[C@H](O)C[C@](C)(CNc2cccc(S(N)(=O)=O)c2)C1 (relative stereo) | 75% | 141 µg/mL (≈ 432 µM)
3 | CC1(C)C[C@H](O)C[C@](C)(CNc2ccc(Cl)c(S(N)(=O)=O)c2)C1 | 70% | 
